# US20150181873A1, “HERBICIDE-RESISTANT SUNFLOWER PLANTS, POLYNUCLEOTIDES ENCODING HERBICIDE=RESISTANT ACETO HYDROXY ACID SYNTHASE LARGE SUBUNIT PROTEINS, AND METHODS OF USE” (NIDERA S.A., priority 2013, published 2015)
# How the values were obtained:
# Type in all cases: in vivo, Helianthus annuus
# [1] = test system: Conventional non-Clearfield sunflower variety; test: Greenhouse spray injury rating, conventional variety; conditions: imazapyr 240 gm ai/ha, scale 0-9
# From the text: (§1) Sunflower lines S4897, Clearfield® sunflower varieties A, B, C and a conventional non-Clearfield variety were sprayed with three rates of imazamox (Raptor™), 100, 200 and 300 gm ai/ha plus 0.5% Sun It II and two rates of imazapyr (Arsenal™) 160 and 360 gm ai/ha plus 0.5% Sun It II when the plants were at the two to three leaf stage. Ratings were taken at 14 days after application (DAT) for injury. Injury was rated on a scale from 0 to 9 where 0=no injury to 9=dead plant. Twelve plants were sprayed per herbicide/rate treatment. Statistical analysis was conducted with STATGRAPHICS Plus 5.0 by using ANOVA and LSD procedures.
# (§2) After plants were sprayed, it was realized that a height difference between S4897 and other sunflower varieties would have impacted the actual herbicide dose that was delivered. The spray boom height had been calibrated against S4897 and since the other varieties were taller and closer to the boom they would have received a greater dose of herbicide. Rates were recalibrated for the other varieties to determine the approximate dose they would have received. Assessments were made as presented in Table 2 since it was not possible to make a direct rate comparison due to the effect of the height. For example injury scores were compare for S4897 treated imazamox rate 100 gm ai/ha to the other varieties treated at 75 gm ai/ha. The treatment dose of 300 gm ai/ha for line S4897 was equivalent to the treatment of 200 gm ai/ha for the other varieties, which […].
# [2] = test system: sunflower hybrid TH1 (A205V); test: Greenhouse imazapir dose response, TH1; conditions: 14 DAT
# Procedure: (§3) A greenhouse study was conducted to quantify and contrast the imazapir sensivity of the mutants A122T and A205V in different genetic backgrounds at the whole plant level in sunflower. Seeds of the different sunflower lines that were used in this study were obtained under field conditions.
# (§4) Seeds were sown in Petri dishes and, after germination, plantlets were transplanted to pots of 10 cm of diameter in a potting media consisting of equal parts of vermiculite, soil and sand. Plants were grown in a greenhouse under natural light conditions supplemented with 400 W sodium halide lamps to provide a 16 hrs daylength. Day/night temperatures were 25 and 20° C., respectively. At the V2 stage 10 plants of each genotype were randomly assigned to each treatment consisting of […] imazapir doses (0, 40, 80, 160, 240, 320, 400 and 480 g ai/ha), and a zero-time biomass determination. Experiment was arranged as a randomized block design with a full factorial (sunflower line×treatment) arrangement of treatments and 10 replications.
# (§5) On the day of herbicide application ten plants of each genotype were cut at the cotyledonal node and dried at 60° C. for 48 hrs zero-time for dried weight determination. […] Height was determined as the distance between the cotyledonal node and the apex of each plant. For root biomass determination, each plant was taken from the pot and the potting media was washed out from the roots. Above ground biomass data from each line were converted to biomass accumulation after application by subtracting the appropriate average zero-time biomass from each sample. Dry biomass data were converted to percentages of the untreated control plants within each line to allow direct comparisons between groups.
# [3] = test system: sunflower restorer line TH12 (A122T); test: Greenhouse imazapir dose response, TH12; conditions: 14 DAT
# Procedure: as §3, §4, §5
# [4] = test system: sunflower hybrid TH9 (A205V); test: Greenhouse imazapir dose response, TH9; conditions: 14 DAT
# Procedure: as §3, §4, §5
# Sunflower line S4897 = test: Greenhouse spray injury rating, line S4897; conditions: imazapyr 360 gm ai/ha (column 360/240)
# From the text: as §1, §2
structure (smiles),measurement,setting,value
"CC(C)C1(C)N=C(c2ncccc2C(=O)O)NC1=O (stereo not drawn) [Imazapyr, imazapyr]",Injury at 14 DAT,[1],8.2 days
same,Phytotoxicity Index,[2]; 0.5x (40 g ai/ha),0
same,"biomass accumulation, % of untreated",[2]; 0.5x (40 g ai/ha),95.0%
same,"plant height, % of untreated",[2]; 0.5x (40 g ai/ha),99.5%
same,"root dry weight, % of untreated",[2]; 0.5x (40 g ai/ha),79.4%
same,Phytotoxicity Index,[2]; 1x (80 g ai/ha),0
same,"biomass accumulation, % of untreated",[2]; 1x (80 g ai/ha),89.6%
same,"plant height, % of untreated",[2]; 1x (80 g ai/ha),99.5%
same,"root dry weight, % of untreated",[2]; 1x (80 g ai/ha),70.7%
same,Phytotoxicity Index,[2]; 2x (160 g ai/ha),1.8
same,"biomass accumulation, % of untreated",[2]; 2x (160 g ai/ha),75.5%
same,"plant height, % of untreated",[2]; 2x (160 g ai/ha),78.6%
same,"root dry weight, % of untreated",[2]; 2x (160 g ai/ha),69.6%
same,Phytotoxicity Index,[2]; 3x (240 g ai/ha),6.4
same,"biomass accumulation, % of untreated",[2]; 3x (240 g ai/ha),60.4%
same,"plant height, % of untreated",[2]; 3x (240 g ai/ha),48.4%
same,"root dry weight, % of untreated",[2]; 3x (240 g ai/ha),42.3%
same,Phytotoxicity Index,[2]; 4x (320 g ai/ha),8.0
same,"biomass accumulation, % of untreated",[2]; 4x (320 g ai/ha),46.5%
same,"plant height, % of untreated",[2]; 4x (320 g ai/ha),28.9%
same,"root dry weight, % of untreated",[2]; 4x (320 g ai/ha),38.6%
same,Phytotoxicity Index,[2]; 5x (400 g ai/ha),8.9
same,"biomass accumulation, % of untreated",[2]; 5x (400 g ai/ha),38.9%
same,"plant height, % of untreated",[2]; 5x (400 g ai/ha),25.3%
same,"root dry weight, % of untreated",[2]; 5x (400 g ai/ha),34.7%
same,Phytotoxicity Index,[2]; 6x (480 g ai/ha),9.0
same,"biomass accumulation, % of untreated",[2]; 6x (480 g ai/ha),33.9%
same,"plant height, % of untreated",[2]; 6x (480 g ai/ha),27.1%
same,"root dry weight, % of untreated",[2]; 6x (480 g ai/ha),23.1%
same,Phytotoxicity Index,[3]; 0.5x (40 g ai/ha),0.0
same,"biomass accumulation, % of untreated",[3]; 0.5x (40 g ai/ha),100.0%
same,"plant height, % of untreated",[3]; 0.5x (40 g ai/ha),100.0%
same,"root dry weight, % of untreated",[3]; 0.5x (40 g ai/ha),99.4%
same,Phytotoxicity Index,[3]; 1x (80 g ai/ha),0.0
same,"biomass accumulation, % of untreated",[3]; 1x (80 g ai/ha),99.1%
same,"plant height, % of untreated",[3]; 1x (80 g ai/ha),100.0%
same,"root dry weight, % of untreated",[3]; 1x (80 g ai/ha),100%
same,Phytotoxicity Index,[3]; 2x (160 g ai/ha),0.0
same,"biomass accumulation, % of untreated",[3]; 2x (160 g ai/ha),97.0%
same,"plant height, % of untreated",[3]; 2x (160 g ai/ha),101.8%
same,"root dry weight, % of untreated",[3]; 2x (160 g ai/ha),100%
same,Phytotoxicity Index,[3]; 3x (240 g ai/ha),0.0
same,"biomass accumulation, % of untreated",[3]; 3x (240 g ai/ha),96.1%
same,"plant height, % of untreated",[3]; 3x (240 g ai/ha),97.0%
same,"root dry weight, % of untreated",[3]; 3x (240 g ai/ha),100.0%
same,Phytotoxicity Index,[3]; 4x (320 g ai/ha),0.0
same,"biomass accumulation, % of untreated",[3]; 4x (320 g ai/ha),84.3%
same,"plant height, % of untreated",[3]; 4x (320 g ai/ha),92.1%
same,"root dry weight, % of untreated",[3]; 4x (320 g ai/ha),74.5%
same,Phytotoxicity Index,[3]; 5x (400 g ai/ha),0.0
same,"biomass accumulation, % of untreated",[3]; 5x (400 g ai/ha),77.5%
same,"plant height, % of untreated",[3]; 5x (400 g ai/ha),84.8%
same,"root dry weight, % of untreated",[3]; 5x (400 g ai/ha),65.0%
same,Phytotoxicity Index,[3]; 6x (480 g ai/ha),0.5
same,"biomass accumulation, % of untreated",[3]; 6x (480 g ai/ha),70.7%
same,"plant height, % of untreated",[3]; 6x (480 g ai/ha),79.8%
same,"root dry weight, % of untreated",[3]; 6x (480 g ai/ha),57.8%
same,Phytotoxicity Index,[4]; 0.5x (40 g ai/ha),0
same,"biomass accumulation, % of untreated",[4]; 0.5x (40 g ai/ha),91.7%
same,"plant height, % of untreated",[4]; 0.5x (40 g ai/ha),100.0%
same,"root dry weight, % of untreated",[4]; 0.5x (40 g ai/ha),81.5%
same,Phytotoxicity Index,[4]; 1x (80 g ai/ha),0
same,"biomass accumulation, % of untreated",[4]; 1x (80 g ai/ha),81.7%
same,"plant height, % of untreated",[4]; 1x (80 g ai/ha),100.0%
same,"root dry weight, % of untreated",[4]; 1x (80 g ai/ha),84.9%
same,Phytotoxicity Index,[4]; 2x (160 g ai/ha),1.6
same,"biomass accumulation, % of untreated",[4]; 2x (160 g ai/ha),54.7%
same,"plant height, % of untreated",[4]; 2x (160 g ai/ha),78.9%
same,"root dry weight, % of untreated",[4]; 2x (160 g ai/ha),58.8%
same,Phytotoxicity Index,[4]; 3x (240 g ai/ha),5.1
same,"biomass accumulation, % of untreated",[4]; 3x (240 g ai/ha),35.7%
same,"plant height, % of untreated",[4]; 3x (240 g ai/ha),50.0%
same,"root dry weight, % of untreated",[4]; 3x (240 g ai/ha),34.1%
same,Phytotoxicity Index,[4]; 4x (320 g ai/ha),8.4
same,"biomass accumulation, % of untreated",[4]; 4x (320 g ai/ha),25.3%
same,"plant height, % of untreated",[4]; 4x (320 g ai/ha),38.1%
same,"root dry weight, % of untreated",[4]; 4x (320 g ai/ha),27.3%
same,Phytotoxicity Index,[4]; 5x (400 g ai/ha),8.9
same,"biomass accumulation, % of untreated",[4]; 5x (400 g ai/ha),19.8%
same,"plant height, % of untreated",[4]; 5x (400 g ai/ha),31.8%
same,"root dry weight, % of untreated",[4]; 5x (400 g ai/ha),29.9%
same,Phytotoxicity Index,[4]; 6x (480 g ai/ha),8.9
same,"biomass accumulation, % of untreated",[4]; 6x (480 g ai/ha),19.5%
same,"plant height, % of untreated",[4]; 6x (480 g ai/ha),34.7%
same,"root dry weight, % of untreated",[4]; 6x (480 g ai/ha),22.1%
same,Injury at 14 DAT,Sunflower line S4897; scale 0-9,0.8 a
same,Injury at 14 DAT,"Sunflower line S4897; scale 0-9, listed as imazapyr",very little injury
